# According to US11420961B2, “Heterocyclic compounds” (Hoffmann-La Roche Inc., priority 2017, dated 2022):
# pIC50: −log10 of the molar value.
# Molecular target: T1, MAGL (recombinant wild-type) (Homo sapiens, UniProt Q99685)
# T1 sequence (Q99685 1-303): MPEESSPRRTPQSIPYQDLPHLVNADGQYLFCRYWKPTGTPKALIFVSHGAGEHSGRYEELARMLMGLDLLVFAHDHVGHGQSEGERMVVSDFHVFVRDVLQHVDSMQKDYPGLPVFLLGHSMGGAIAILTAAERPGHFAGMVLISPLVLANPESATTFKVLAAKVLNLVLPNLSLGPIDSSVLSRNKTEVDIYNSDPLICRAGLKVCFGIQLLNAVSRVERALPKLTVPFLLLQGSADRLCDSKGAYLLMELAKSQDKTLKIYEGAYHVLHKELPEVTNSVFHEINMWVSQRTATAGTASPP
# Assay: 4-NPA assay: MAGL inhibitory activity by hydrolysis of 4-nitrophenylacetate, absorbance at 405 nm
# Type: biochemical
# Details: 4-NPA assay (values without footnote [a])
# Method in brief: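 Compound (final 25 μM to 1.7 nM, 3-fold steps) was preincubated 15 min at RT with 1 nM MAGL in 50 mM Tris, 1 mM EDTA, then 300 μM 4-nitrophenylacetate was added. A405 was read after 5 min and again 80 min later at RT, and activity was taken as the difference between the two reads.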
row,SMILES,pIC50
1,"O=C1COc2ccc(C(=O)N3CCC(c4c[nH]c5ccc(F)cc45)CC3)cc2N1 [Example 22, 6-[4-(5-fluoro-1H-indol-3-yl)piperidine-1-carbonyl]-4H-1,4-benzoxazin-3-one]",8.08
2,"COc1ccc(C(c2ccncc2)C2CCN(C(=O)c3ccc4c(c3)NC(=O)CO4)CC2)cc1OC (single isomer, unassigned) [Example 126, 6-[4-[(R or S)-(3,4-Dimethoxyphenyl)-(4-pyridyl)methyl]piperidine-1-carbonyl]-4H-1,4-benzoxazin-3-one]",8.07
3,"O=C1CCc2c(cc(C(=O)N3CCC(C(c4ccc(F)cc4)c4ccc(F)cc4)CC3)cc2OCCF)N1 [Example 106, 7-[4-[Bis(4-fluorophenyl)methyl]piperidine-1-carbonyl]-5-(2-fluoroethoxy)-3,4-dihydro-1H-quinolin-2-one]",8.10
4,"Cc1[nH]c2ccc(Cl)cc2c1C1CCN(C(=O)c2ccc3c(c2)NC(=O)CO3)CC1 [Example 47, 6-[4-(5-chloro-2-methyl-1H-indol-3-yl)piperidine-1-carbonyl]-4H-1,4-benzoxazin-3-one]",7.23
5,"COc1cccc([C@H](c2ccccc2)C2CCN(C(=O)c3ccc4c(c3)NC(=O)CO4)CC2)c1 (single isomer, unassigned) [Example 12]",9.40
6,"O=C1COc2ccc(C(=O)N3CCC([C@H](c4ccc(F)cc4)c4cccc(OCCF)c4)CC3)cc2N1 [Example 76, 6-[4-[(R)-[3-(2-fluoroethoxy)phenyl]-(4-fluorophenyl)methyl]piperidine-1-carbonyl]-4H-1,4-benzoxazin-3-one]",9.28
7,"O=C1COc2ccc(C(=O)N3CCC([C@@H](c4ccccc4)c4cccc(OCCOCCF)c4)CC3)cc2N1 [Example 67, 6-[4-[(S)-[3-[2-(2-fluoroethoxy)ethoxy]phenyl]-phenyl-methyl]piperidine-1-carbonyl]-4H-1,4-benzoxazin-3-one]",9.19
8,"O=C1COc2ccc(C(=O)N3CCC(C(c4ccccc4)c4cccc(F)c4)CC3)cc2N1 (centres unmarked) [Example 82, 6-[4-[(3-fluorophenyl)-phenyl-methyl]piperidine-1-carbonyl]-4H-1,4-benzoxazin-3-one]",9.16
9,"Cc1ccc([C@H](c2ccccc2)C2CCN(C(=O)c3ccc4c(c3)NC(=O)CO4)CC2)cc1 (single isomer, unassigned) [Example 14]",9.30
10,"O=C1COc2ccc(C(=O)N3CCC(C(c4ccccc4)c4cccnc4F)CC3)cc2N1 (centres unmarked) [Example 78, 6-[4-[(2-fluoro-3-pyridyl)-phenyl-methyl]piperidine-1-carbonyl]-4H-1,4-benzoxazin-3-one]",8.74
11,"O=C1COc2ccc(C(=O)N3CCC(c4c[nH]c5ccc(Cl)cc45)CC3)cc2N1 [Example 20, 6-[4-(5-chloro-1H-indol-3-yl)piperidine-1-carbonyl]-4H-1,4-benzoxazin-3-one]",8.45
12,"O=C1COc2ccc(C(=O)N3CCC(C(c4ccccc4)c4ccc(F)nc4)CC3)cc2N1 (single isomer, unassigned) [Example 102, 6-[4-[(S or R)-(6-Fluoro-3-pyridyl)-phenyl-methyl]piperidine-1-carbonyl]-4H-1,4-benzoxazin-3-one]",8.46
13,"O=C1COc2ccc(C(=O)N3CCN(c4ccc(Cl)c(Cl)c4)CC3)cc2N1 [Example 86, 6-[4-(3,4-dichlorophenyl)piperazine-1-carbonyl]-4H-1,4-benzoxazin-3-one]",6.21
14,"COc1ccc2[nH]c(C)c(C3CCN(C(=O)c4ccc5c(c4)NC(=O)CO5)CC3)c2c1 [Example 41, 6-[4-(5-methoxy-2-methyl-1H-indol-3-yl)piperidine-1-carbonyl]-4H-1,4-benzoxazin-3-one]",6.36
15,"O=C1COc2ccc(C(=O)N3CCC(C(c4ccccc4)c4cccc(F)n4)CC3)cc2N1 (single isomer, unassigned) [Example 99, 6-[4-[(R or S)-(6-fluoro-2-pyridyl)-phenyl-methyl]piperidine-1-carbonyl]-4H-1,4-benzoxazin-3-one]",8.59
16,"O=C1COc2ccc(C(=O)N3CCC(c4n[nH]c5cc(F)ccc45)CC3)cc2N1 [Example 43, 6-[4-(6-fluoro-1H-indazol-3-yl)piperidine-1-carbonyl]-4H-1,4-benzoxazin-3-one]",6.74
17,"O=C1COc2ccc(C(=O)N3CCC(c4c[nH]c5ncccc45)CC3)cc2N1 [Example 45, 6-[4-(1H-pyrrolo[2,3-b]pyridin-3-yl)piperidine-1-carbonyl]-4H-1,4-benzoxazin-3-one]",6.66
18,"O=C1COc2ccc(C(=O)N3CCC(C(O)(c4ccccc4)c4ccccc4)CC3)cc2N1 [Example 5, 6-[4-[Hydroxy(diphenyl)methyl]piperidine-1-carbonyl]-4H-1,4-benzoxazin-3-one]",7.82
19,"COc1ccc(C(c2ccccn2)C2CCN(C(=O)c3ccc4c(c3)NC(=O)CO4)CC2)cc1OC (single isomer, unassigned) [Example 117, 6-[4-[(S or R)-(3,4-Dimethoxyphenyl)-(2-pyridyl)methyl]piperidine-1-carbonyl]-4H-1,4-benzoxazin-3-one]",8.14

row,SMILES,pIC50
1,"COc1ccc([C@H](c2ccccc2)C2CCN(C(=O)c3ccc4c(c3)NC(=O)CO4)CC2)cc1 (single isomer, unassigned) [Example 10]",8.72
2,"O=C1COc2ccc(C(=O)N3CCC(c4c[nH]c5cc(Cl)ccc45)CC3)cc2N1 [Example 21, 6-[4-(6-chloro-1H-indol-3-yl)piperidine-1-carbonyl]-4H-1,4-benzoxazin-3-one]",7.85
3,"Cn1cc(C2CCN(C(=O)c3ccc4c(c3)NC(=O)CO4)CC2)c2ccc(Cl)cc21 [Example 30, 6-[4-(6-chloro-1-methylindol-3-yl)piperidine-1-carbonyl]-4H-1,4-benzoxazin-3-one]",7.64
4,"O=C1COc2ccc(C(=O)N3CCC(C(c4ccccc4)c4ccc(Cl)c(Cl)c4)CC3)cc2N1 (centres unmarked) [Example 4, 6-[4-[(3,4-Dichlorophenyl)-phenylmethyl]piperidine-1-carbonyl]-4H-1,4-benzoxazin-3-one]",9.16
5,"O=C1COc2ccc(C(=O)N3CCC([C@@H](c4ccccc4)c4ccc(F)cc4)CC3)cc2N1 (single isomer, unassigned) [Example 6]",9.05
6,"O=C1COc2ccc(C(=O)N3CCC(C4(c5ccc(Br)cc5)OCCO4)CC3)cc2N1 [Example 54, 6-[4-[2-(4-bromophenyl)-1,3-dioxolan-2-yl]piperidine-1-carbonyl]-4H-1,4-benzoxazin-3-one]",8.14
7,"O=C1COc2ccc(C(=O)N3CCN(c4cc(Cl)cc(Cl)c4)CC3)cc2N1 [Example 87, 6-[4-(3,5-dichlorophenyl)piperazine-1-carbonyl]-4H-1,4-benzoxazin-3-one]",5.88
8,"Cc1cccc([C@@H](c2ccccc2)C2CCN(C(=O)c3ccc4c(c3)NC(=O)CO4)CC2)c1 (single isomer, unassigned) [Example 17]",9.70
9,"O=C1COc2ccc(C(=O)N3CCN(c4ccc(C(F)(F)F)cn4)CC3)cc2N1 [Example 90, 6-[4-[5-(trifluoromethyl)-2-pyridyl]piperazine-1-carbonyl]-4H-1,4-benzoxazin-3-one]",5.65
10,"O=C1COc2cc(F)c(C(=O)N3CCC(C(c4ccccc4)c4ccccc4)CC3)cc2N1 [Example 1, 6-(4-Benzhydrylpiperidine-1-carbonyl)-7-fluoro-4H-1,4-benzoxazin-3-one]",9.02
11,"COc1cccc(C(c2ccc(F)cc2)C2CCN(C(=O)c3ccc4c(c3)NC(=O)CO4)CC2)c1 (single isomer, unassigned) [Example 120, 6-[4-[(R or S)-(4-Fluorophenyl)-(3-methoxyphenyl)methyl]piperidine-1-carbonyl]-4H-1,4-benzoxazin-3-one]",9.22
12,"O=C1COc2ccc(C(=O)N3CCC(c4c[nH]c5ccccc45)CC3)cc2N1 [Example 18, 6-[4-(1H-indol-3-yl)piperidine-1-carbonyl]-4H-1,4-benzoxazin-3-one]",7.48
13,"COc1ccc([C@@H](c2ccccc2)C2CCN(C(=O)c3ccc4c(c3)NC(=O)CO4)CC2)cc1 (single isomer, unassigned) [Example 11]",9.22
14,"O=C1COc2ccc(C(=O)N3CCC(c4cc(-c5ccc(Cl)cc5)[nH]n4)CC3)cc2N1 [Example 44, 6-[4-[5-(4-chlorophenyl)-1H-pyrazol-3-yl]piperidine-1-carbonyl]-4H-1,4-benzoxazin-3-one]",6.41
15,"O=C1COc2ccc(C(=O)N3CCC(c4nnc(-c5ccccc5)o4)CC3)cc2N1 [Example 48, 6-[4-(5-phenyl-1,3,4-oxadiazol-2-yl)piperidine-1-carbonyl]-4H-1,4-benzoxazin-3-one]",6.26
16,"Cn1cc(C2CCN(C(=O)c3ccc4c(c3)NC(=O)CO4)CC2)c2cc(Cl)c(F)cc21 [Example 27, 6-[4-(5-chloro-6-fluoro-1-methylindol-3-yl)piperidine-1-carbonyl]-4H-1,4-benzoxazin-3-one]",8.55
17,"O=C1COc2ccc(C(=O)N3CCC(c4cccc(Cl)c4)C3)cc2N1 (centres unmarked) [Example 56, 6-[3-(3-chlorophenyl)pyrrolidine-1-carbonyl]-4H-1,4-benzoxazin-3-one]",5.85
18,"O=C1COc2ccc(C(=O)N3CCC(C4(c5ccccc5)CC4)CC3)cc2N1 [Example 55, 6-[4-(1-phenylcyclopropyl)piperidine-1-carbonyl]-4H-1,4-benzoxazin-3-one]",7.17
19,"O=C1COc2ccc(C(=O)N3CCC(c4nccc(C(F)(F)F)n4)C3)cc2N1 (centres unmarked) [Example 57, 6-[3-[4-(trifluoromethyl)pyrimidin-2-yl]pyrrolidine-1-carbonyl]-4H-1,4-benzoxazin-3-one]",5.52
